# Results published in patent US20250381117A1 (MARY KAY INC., priority 2024, published 2025).
# Where two headings read alike, the source gives them in different places.
# Assays:
# [1] = Solubility Analyses (Example 1): dissolution in water; format: physicochemical
# [2] = at 25° C., cited from earlier work
compound,measurement,setting,value
COc1ccc2[nH]cc(CCNC(C)=O)c2c1 [melatonin],dissolution in water,[1]; melatonin 1.2% (w/w) in the absence of caffeine,did not completely dissolve
same,dissolution in water,[1]; melatonin 2% (w/w) in the absence of caffeine,did not dissolve completely
same,solubility in water,[2],approximately 0.01 g/100 mL
same,solubility in water,[2]; same value given in percent,approximately 0.01%
